According to US20100022559A1, “BISOXIMES AS FUNGICIDES” (BAYER CROPSCIENCE AG, priority 2006, published 2010):
Each block holds one molecule with its values, some of them ahead of it.

Test: logP determination by HPLC on a reversed-phase column (C 18), EEC Directive 79/831 Annex V.A8
Type: physicochemical
Description: The stated logP values were determined in accordance with EEC Directive 79/831 Annex V.A8 by HPLC (high performance liquid chromatography) on a reversed-phase column (C 18). Temperature: 43° C.

[1] = [a] acidic range, pH 2.3, 0.1% aqueous phosphoric acid and acetonitrile
[2] = method marker [b], isomer A / isomer B / isomer mixture as noted in the cell
[3] = method marker [a] (footnote not shown), isomer A / isomer B / isomer mixture as noted in the cell

SMILES: Cc1cccc(C(=NOCCCON)C(C)C)n1 [XII-2]
logP [1]: 1.05^[a]

SMILES: CCC(CC)(CON=C(C)c1ccc(C)c(C)n1)CON=C(C)c1ccc(C)c(C)n1 [Compound 810]
logP (value marked [b]): 6.50^[b]
logP (value marked [c]): 7.36^[c]

SMILES: CC(=NOCC1(CON=C(C)c2nc(C)ccc2C)CCCC1)c1nc(C)ccc1C (single isomer, unassigned) [Compound 763]
logP (value marked [b]): 4.76^[b]
logP (value marked [c]): 6.32^[c]

SMILES: Cc1cccc(C(=NOCCCON)C(C)C)n1 [XII-1]
logP [1]: 1.12^[a]

SMILES: C=C(CON=C(C)c1cccc(C)n1)CON=C(N)c1nc(C)c2c(n1)CCCC2 [Compound 182]
logP [2]: 2.55^[b]

SMILES: CCC1=NOC(CO/N=C(\C)c2cccc(C)n2)(CO/N=C(\C)c2cccc(C)n2)C1 [(1E,1′E)-1-(6-methylpyridin-2-yl)ethanone O,O′-[(3-ethyl-4,5-dihydroisoxazole-5,5-diyl)bis(methylene)]oxime]
chromatographic logP (reversed-phase HPLC column (C 18), HCO2H, HPLC reversed-phase column (C 18), 43° C., read-out: logP (HCO2H)): 2.68

SMILES: CC(=NOC[Si](C)(CON=C(C)c1cccc(C)n1)C(C)C)c1cccc(C)n1 [Compound 834]
logP (value marked [a]): 6.72^[a]
logP (value marked [b]): 6.72^[b]
logP (value marked [c]): 7.35^[c]

SMILES: C=C(CON=C(C)c1cccc(C)n1)CON=C(N)c1nc(C2CC2)cc(C2CC2)n1 [Compound 243]
logP [2]: 3.09^[b]

SMILES: COc1cc(C)nc(C(C)=NOCC(C)CON=C(C)c2cc(OC)cc(C)n2)c1 (stereo not drawn) [Compound 806]
logP (value marked [a]): 1.31^[a]
logP (value marked [c]): 5.25^[c]

SMILES: CCC(=NOCC(C)CON=C(CC)c1cccc(C)n1)c1cccc(C)n1 (stereo not drawn) [Compound 116]
logP [3]: 5.40^[a]

SMILES: CCC(=NOCC(C)(C)CON=C(CC)c1ccc(C)c(C)n1)c1ccc(C)c(C)n1 [Compound 280]
logP (value marked [a]): 5.58^[a]

SMILES: CC(=NOCC(C)(C)CON=C(C)c1ccc(C)c(C)n1)c1cc(C)cc(C)n1 [Compound 697]
logP (method marked [b] in Table 1): 3.15^[b]
logP (method marked [c] in Table 1): 6.70^[c]

SMILES: C=C(CON=C(C)c1ccccn1)CON=C(C)c1cccc(C)n1 (single isomer, unassigned) [Compound 17]
logP [2]: 3.10^[b] (isomer A)

SMILES: Cc1cc(C)nc(/C(N)=N/OCO/N=C(\N)c2cc(C)cc(C)n2)c1 [compound 58]
logP [2]: 1.87^[b]

SMILES: CC(=NOCC(C)CON=C(C)c1cc(C)cc(C)n1)c1cc(C)cc(C)n1 (stereo not drawn) [Compound 225]
logP [3]: 2.11^[a]

SMILES: CC(=NOCCCON=C(C)c1ccnc(C)n1)c1ccnc(C)n1 [compound 161]
logP [3]: 3.06^[a]

SMILES: C/C(=N\OCC1(CON)CC1)c1cc(C)cc(C)n1 [XII-12]
logP [1]: 0.61^[a]
logP ([b] LC-MS, acidic range, pH 2.7, 0.1% aqueous formic acid and acetonitrile): 0.61^[b]
logP ([c] LC-MS, neutral range, pH 7.8, 0.001 molar aqueous ammonium bicarbonate solution and acetonitrile): 2.42^[c]

SMILES: COC(CON=C(C)c1ccc(C)c(C)n1)CON=C(C)c1ccc(C)c(C)n1 (stereo not drawn) [Compound 321]
logP (value marked [b]): 1.95^[b]
logP (value marked [c]): 5.06^[c]

SMILES: CCCc1cccc(C(C)=NOCC(C)CON=C(C)c2cccc(CCC)n2)n1 (stereo not drawn) [Compound 175]
logP [3]: 7.36^[a]

SMILES: CCC(=NOCC(C)CON=C(CC)c1ncccc1C)c1ncccc1C (single isomer, unassigned) [compound 101]
logP [3]: 4.23^[a] (isomer B)

SMILES: CC(=NOCC(C)CON=C(C)c1sc(C)nc1C)c1sc(C)nc1C (mixture of isomers) [compound 121]
logP [3]: 4.02^[a]

SMILES: C=C(CON=C(C)c1cccc(C)n1)CON=C(N)c1nc(C)c(C(C)CC)c(C2CC2)n1 (stereo not drawn) [Compound 244]
logP [2]: 3.99^[b]

SMILES: CC(=NOCC(C)(C)CON=C(C)c1ccc(C)o1)c1ccc(C)o1 [Compound 698]
logP (method marked [b] in Table 1): 5.00^[b]

SMILES: CC(=NOCC(C)CON=C(C)c1cccc([Si](C)(C)C)n1)c1ccccn1 (stereo not drawn) [Compound 826]
logP (value marked [b]): 6.72^[b]
logP (value marked [c]): 7.29^[c]

SMILES: C=C(CON=C(C)c1cccc(C)n1)CON=C(C#N)c1ccc(C)c(C)n1 [Compound 821]
logP (value marked [a]): 3.74^[a]

SMILES: CCc1ccnc(C(C)=NOCC(C)CON=C(C)c2cc(CC)ccn2)c1 (stereo not drawn) [compound 105]
logP [3]: 3.62^[a]

SMILES: Cc1cccnc1C(=NOCCCON=C(c1ncccc1C)C(C)C)C(C)C (mixture of isomers) [compound 92]
logP [3]: 4.13^[a]

SMILES: CC(=NOCC(C)(C)CON=C(C)c1cc(C2CC2)cc(C)n1)c1cc(C2CC2)cc(C)n1 [Compound 817]
logP (value marked [a]): 3.27^[a]
logP (value marked [c]): 7.14^[c]

SMILES: C=C(CON=C(C)c1ccc(C)cn1)CON=C(C)c1cccc(C)n1 [compound 209]
logP [2]: 3.33^b]

SMILES: CCCc1cccc(C(C)=NOCC(C)CON=C(C)c2cccc(C)n2)n1 (stereo not drawn) [Compound 502]
logP (value marked [b]): 5.84^[b]

SMILES: CC(=NOCC(C)(O)CON=C(C)c1cccc(C)n1)c1cccc(C)n1 (stereo not drawn) [Compound 12]
logP [3]: 1.66^[a]

SMILES: CC(=NOCC(C)(O)CON=C(C)c1ccccn1)c1ccccn1 (stereo not drawn) [compound 2]
logP [3]: 1.73^[a]

SMILES: CC(=NOCC(C)CON=C(C)c1cccc(C(=O)c2ccccc2)n1)c1cccc(C)n1 (stereo not drawn) [Compound 690]
logP (method marked [b] in Table 1): 5.75^[b]

SMILES: CC(=NOCCCCON=C(C)c1ccccn1)c1ccccn1 [compound 124]
logP [2]: 3.00^[b]

SMILES: CC(=NOCC(C)CON=C(C)c1nc(C)ccc1C)c1nc(C)ccc1C (single isomer, unassigned) [Compound 267]
logP (value marked [b]): 2.5^[b] (isomer B)

SMILES: CC(=NOCC1(CON=C(C)c2cc(C)cc(C)n2)CCC1)c1cc(C)cc(C)n1 [Compound 562]
logP (method marked [b] in Table 1): 2.90^[b]
logP (method marked [c] in Table 1): 6.93^[c]

SMILES: CCCC(=NOCCCON=C(CCC)c1ncccc1C)c1ncccc1C (single isomer, unassigned) [compound 98]
logP [3]: 4.83^[a] (isomer B)

The remaining lines, values ahead:

logP (value marked [a]): 4.03^[a]
SMILES: Cc1cccc(C(=NOCCON=C(c2cccc(C)n2)C(C)C)C(C)C)n1 (mixture of isomers) [compound 288]

logP (method marked [b] in Table 1): 4.27^[b]
SMILES: CC(=NOCc1ccc(CON=C(C)c2cccc(C)n2)cc1)c1cccc(C)n1 [compound 705]

logP (method marked [b] in Table 1): 3.29^[b]
SMILES: Cc1nc(/C(N)=N/OCc2cccc(CO/N=C(\N)c3nc(C)c(Cl)c(C)n3)c2)nc(C)c1Cl [compound 715]

logP (method marked [b] in Table 1): 2.89^[b]
logP (method marked [c] in Table 1): 4.85^[c]
SMILES: CC(=NOCC(CON=C(C)c1nc(C)ccc1C)C(C)C)c1nc(C)ccc1C (single isomer, unassigned) [compound 752]

logP (value marked [b]): 6.22^[b]
SMILES: CC(=NOCC(C)(C)CON=C(C)c1cccc(C)n1)c1ccc(Cl)cc1 [compound 485]

logP (value marked [a]): 6.25^[a]
logP (value marked [b]): 6.25^[b]
logP (value marked [c]): 6.31^[c]
SMILES: CC(=O)OCC#Cc1cc(C)nc(C(C)=NOCC(C)CON=C(C)c2cc(C#CCOC(C)=O)cc(C)n2)c1 (stereo not drawn) [compound 875]

logP (value marked [a]): 7.36^[a]
logP (value marked [b]): 7.36^[b]
logP (value marked [c]): 5.53^[c]
SMILES: CC(=NOCC(C)CON=C(C)c1cc(C(F)(F)F)cc(C)n1)c1cc(C(F)(F)F)cc(C)n1 (stereo not drawn) [compound 869]

logP (value marked [b]): 1.93^[b]
SMILES: CC(=NOCC1(CON=C(C)c2cccc(NCC3CC3)n2)CC1)c1cccc(NCC2CC2)n1 [compound 849]

logP (method marked [b] in Table 1): 3.12^[b]
logP (method marked [c] in Table 1): 5.02^[c]
SMILES: CC(=NOCCC(C)ON=C(C)c1nc(C)ccc1C)c1nc(C)ccc1C (single isomer, unassigned) [compound 759]

logP (method marked [b] in Table 1): 3.28^[b]
SMILES: CC(=NOCC1(CON=C(C)c2cc(C)cc(C)n2)CC(c2ccc(Cl)cc2)=NO1)c1cc(C)cc(C)n1 (stereo not drawn) [compound 644]

logP (method marked [b] in Table 1): 3.70^[b]
SMILES: CC(C)=CC1=NOC(CO/N=C(\C)c2cccc(C)n2)(CO/N=C(\C)c2cccc(C)n2)C1 [compound 604]

logP [3]: 1.50^[a]
SMILES: CC(=NOCC(C)CON=C(C)c1ccc(C)nc1)c1ccc(C)nc1 (mixture of isomers) [compound 233]

logP (method marked [a] in Table 1): 7.36^a]
SMILES: CC(=NOCC(C)(C)CON=C(C)c1cccc(-c2cc(Cl)cc(Cl)c2)n1)c1cccc(-c2cc(Cl)cc(Cl)c2)n1 [compound 578]

logP (method marked [a] in Table 1): 4.54^[a]
SMILES: Cc1cccnc1C(=NOCC(C)CON=C(c1ccccc1)c1ncccc1C)c1ccccc1 (stereo not drawn) [compound 658]

logP (value marked [a]): 2.06^[a]
SMILES: CC(=NOC(=O)NCCCC(C)CNC(=O)ON=C(C)c1cc(C)cc(C)n1)c1cc(C)cc(C)n1 (stereo not drawn) [compound 862]

logP (method marked [b] in Table 1): 4.51^[b]
SMILES: CC(=NOCC1(CON=C(C)c2ccc(C)c(C)n2)CC(c2ccc(Cl)cc2)=NO1)c1ccc(C)c(C)n1 (stereo not drawn) [compound 633]

logP [2]: 3.17^[b]
SMILES: C=C(CON=C(C)c1cccc(C)n1)CON=C(C)c1nccc(OCC)n1 [compound 249]

logP (method marked [b] in Table 1): 2.91^[b]
logP (method marked [c] in Table 1): 4.59^[c]
SMILES: CC(=NOCC(CON=C(C)c1nc(C)ccc1C)c1ccccc1)c1nc(C)ccc1C (single isomer, unassigned) [compound 754]

logP (method marked [a] in Table 1): 4.09^[a]
SMILES: Cc1cccc(C(=NOCC(C)(C)CON=C(c2ccccc2)c2cccc(C)n2)c2ccccc2)n1 (mixture of isomers) [compound 660]

logP (value marked [b]): 5.54^[b]
SMILES: CC(=NOCCCCON=C(C)c1cccc(C)n1)c1ccc(Cl)cc1 [compound 444]

logP (method marked [b] in Table 1): 4.46^[b] (isomer B)
SMILES: C=C(CON=C(C)c1cccc(C)n1)CON=C(CCC)c1ncccc1C (single isomer, unassigned) [compound 535]

logP (value marked [b]): 5.78^[b]
SMILES: CC(=NOCCCCCCON=C(C)c1cccc(C)n1)c1ccccc1 [compound 397]

logP (value marked [a]): 6.58^[a]
logP (value marked [b]): 6.58^[b]
logP (value marked [c]): 7.36^[c]
SMILES: CC(=NOCC(C)CON=C(C)c1cc(Cl)cc(C)n1)c1cccc(C)n1 (stereo not drawn) [compound 877]

logP (value marked [b]): 4.35^[b]
SMILES: CC(=NOCCCCON=C(C)c1cccc(C)n1)c1ccc2c(c1)OCO2 [compound 378]

logP (method marked [b] in Table 1): 3.31^[b]
SMILES: CC(=NOc1ncnc(ON=C(C)c2cccc(C)n2)c1Cl)c1cccc(C)n1 [compound 729]

logP (value marked [b]): 5.36^[b]
SMILES: CC(=NOCC(C)(C)CON=C(C)c1nc(C)c(C)s1)c1cccc(C)n1 [compound 411]

logP (method marked [b] in Table 1): 2.51^[b]
SMILES: CCC1=NOC(CON=C(C)c2ccc(C)c(C)n2)(CON=C(C)c2ccc(C)c(C)n2)C1 (stereo not drawn) [compound 628]

logP (value marked [b]): 5.31^[b]
SMILES: C=C(CON=C(C)c1cccc(Cl)c1)CON=C(C)c1cccc(C)n1 [compound 469]

logP (value marked [b]): 4.85^[b]
SMILES: CC(=NOCC(C)CON=C(C)c1nc(C)c(C)s1)c1cccc(C)n1 (stereo not drawn) [compound 434]
